Measured values published in US7704995B2 (Exelixis, Inc., priority 2003, dated 2010).
pIC50: −log10 of the molar value.

Biological target: T1, Chk1 (Homo sapiens, UniProt O14757)
T1 construct: purchased Upstate Biotechnology
T1 sequence (O14757 1-476): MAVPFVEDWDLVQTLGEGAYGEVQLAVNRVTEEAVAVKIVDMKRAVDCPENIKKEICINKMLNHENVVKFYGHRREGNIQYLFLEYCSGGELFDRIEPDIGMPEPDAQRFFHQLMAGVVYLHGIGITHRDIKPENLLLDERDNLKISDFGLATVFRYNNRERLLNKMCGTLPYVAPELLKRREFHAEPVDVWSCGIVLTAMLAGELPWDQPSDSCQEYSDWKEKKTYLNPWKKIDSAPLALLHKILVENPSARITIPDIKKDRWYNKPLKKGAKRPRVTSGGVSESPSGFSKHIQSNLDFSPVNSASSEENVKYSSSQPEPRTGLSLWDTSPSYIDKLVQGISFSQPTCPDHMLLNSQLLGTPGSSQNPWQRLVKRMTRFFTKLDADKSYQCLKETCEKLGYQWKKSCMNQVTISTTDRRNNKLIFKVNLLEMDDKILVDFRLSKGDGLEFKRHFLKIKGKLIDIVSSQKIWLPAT
Experiment: Chk1 kinase assay: incorporation of γ-33P ATP into immobilized myelin basic protein
Format: biochemical
Conditions: Table 11, Chk1 only; class symbols A-D; read-out: Chk1 IC50
Description: Chk1 and Chk2 assays were performed by measuring incorporation of γ-^33P ATP into immobilized myelin basic protein (MBP). High binding white 384 well plates (Greiner) were coated with MBP (Sigma #M-1891) by incubation of 60 ul/well of 20 μg/ml MBP in Tris-buffered saline (TBS; 50 mM Tris pH 8.0, 138 mM NaCl, 2.7 mM KCl) for 24 hours at 4° C. Plates were washed 3× with 100 μl TBS. Kinase reactions were carried out in a total volume of 34 μl in kinase buffer (5 mM Hepes pH 7.6, 15 mM NaCl, 0.01% bovine gamma globulin (Sigma #I-5506), 10 mM MgCl2, 1 mM DTT, 0.02% TritonX-100). Compound dilutions were performed in DMSO and added to assay wells to a final DMSO concentration of 1%. Each data point was measured in duplicate, and at least two duplicate assays were performed for each individual compound determination. Chk1 and Chk2 enzymes (Upstate Biotechnology) were added to final concentrations of 10 nM (Chk1) or 20 nM (Chk2). A mixture of unlabeled ATP and γ-^33P ATP was added to start the reaction (2×10^6 cpm of γ-^33P ATP per well (3000 Ci/mmole) and either 10 μM or 30 μM unlabeled ATP (for Chk1 and Chk2 assays respectively). The reaction was carried out for 1 hour at room temperature with shaking. Plates were washed 7× with TBS, followed by the addition of 50 μl/well scintillation fluid (Wallac). Plates were read using a Wallac Trilux counter. This is only one format of such assays, various other formats are possible, as known to those skilled in the art.
The above assay procedure can be used to determine the IC50 for inhibition and/or the inhibition constant Ki. The IC50 is defined as the concentration of compound required to reduce the enzyme activity by 50% under the conditions of the assay. […] The Ki for a compound may be determined from the IC50 based on three assumptions. First, only one compound molecule binds to the enzyme and there is no cooperativity. […] Third, the enzymatic rate of the enzyme-inhibitor complex is zero. The rate (i.e., compound concentration) data are fitted to the equation: […]

pIC50 | SMILES
> 7.30 | Nc1ncc(-c2cccc(CNC(=O)c3ccc(Br)cc3F)c2)nc1-c1nc([C@H]2CCCNC2)n[nH]1 [Example 944, N-{[3-(5-amino-6-{3-[(3S)-piperidin-3-yl]-1H-1,2,4-triazol-5-yl}pyrazin-2-yl)phenyl]methyl}-4-bromo-2-fluorobenzamide]
6.00 to 7.30 | Nc1ncc(-c2cccc(C(=O)NCc3cc(Cl)ccc3Cl)c2)nc1-c1nc([C@H]2CCCNC2)n[nH]1 [Example 829, 3-(5-amino-6-{3-[(3S)-piperidin-3-yl]-1H-1,2,4-triazol-5-yl}pyrazin-2-yl)-N-[(2,5-dichlorophenyl)methyl]benzamide]

Same assay, conditions: Table 11; Chk1 only; read-out: Chk1 IC50

SMILES | pIC50
Nc1ncc(-c2cccc(C(=O)NCc3ccccc3)c2)nc1C(=O)c1ccc(Cl)c(F)c1 [Example 587, 3-{5-amino-6-[(4-chloro-3-fluorophenyl)carbonyl]pyrazin-2-yl}-N-(phenylmethyl)benzamide] | ≤ 5.00
CC(C)(C)OC(=O)N1CC[C@H](NC(=O)c2nc(-c3cccc(C(=O)NC4Cc5ccccc5C4)c3)cnc2N)C1 [Example 742, 1,1-dimethylethyl (3S)-3-{[(3-amino-6-{3-[(2,3-dihydro-1H-inden-2-ylamino)carbonyl]phenyl}pyrazin-2-yl)carbonyl]amino}pyrrolidine-1-carboxylate] | 6.00 to 7.30
CNC(=O)c1nc(-c2cccc(CNc3cccc4ccccc34)c2)cnc1N [Example 448, 3-amino-N-methyl-6-{3-[(naphthalen-1-ylamino)methyl]phenyl}pyrazine-2-carboxamide] | 6.00 to 7.30
CNC(=O)c1nc(-c2cccc(CNC3Cc4c(F)cccc4C3O)c2)cnc1N (centres unmarked) [Example 467, 3-amino-6-(3-{[(4-fluoro-1-hydroxy-2,3-dihydro-1H-inden-2-yl)amino]methyl}phenyl)-N-methylpyrazine-2-carboxamide] | 6.00 to 7.30
NNC(=O)c1nc(-c2cccc(CN[C@H]3CCc4ccccc43)c2)cnc1N [Example 529, 3-amino-6-(3-{[(1S)-2,3-dihydro-1H-inden-1-ylamino]methyl}phenyl)pyrazine-2-carbohydrazide] | 6.00 to 7.30
Nc1ncc(-c2cccc(CO)c2)nc1-c1nnc(-c2ccccc2)[nH]1 [Example 551, {3-[5-amino-6-(5-phenyl-4H-1,2,4-triazol-3-yl)pyrazin-2-yl]phenyl}methanol] | 6.00 to 7.30
CNC(=O)c1nc(-c2cccc(CNC3Cc4ccc(Br)cc4C3)c2)cnc1N (centres unmarked) [Example 456, 3-amino-6-(3-{[(5-bromo-2,3-dihydro-1H-inden-2-yl)amino]methyl}phenyl)-N-methylpyrazine-2-carboxamide] | 6.00 to 7.30

The remaining lines, values ahead:

pIC50 | SMILES
6.00 to 7.30 | CCCc1ccc(CNCc2cccc(-c3cnc(N)c(C(=O)NC)n3)c2)cc1 [Example 443, 3-amino-N-methyl-6-[3-({[(4-propylphenyl)methyl]amino}methyl)phenyl]pyrazine-2-carboxamide]
≤ 5.00 | CC(C)(C)OC(=O)N1CC[C@H](NC(=O)c2nc(-c3cccc(C(=O)N4CCc5ccccc5C4)c3)cnc2N)C1 [Example 711, 1,1-dimethylethyl (3S)-3-[({3-amino-6-[3-(3,4-dihydroisoquinolin-2(1H)-ylcarbonyl)phenyl]pyrazin-2-yl}carbonyl)amino]pyrrolidine-1-carboxylate]
> 7.30 | Nc1ncc(-c2cccc(C(=O)N[C@@H]3c4ccccc4C[C@@H]3O)c2)nc1C(=O)NC[C@@H]1CCNC1 [Example 780, 3-amino-6-[3-({[(1R,2S)-2-hydroxy-2,3-dihydro-1H-inden-1-yl]amino}carbonyl)phenyl]-N-[(3R)-pyrrolidin-3-ylmethyl]pyrazine-2-carboxamide]
≤ 5.00 | Nc1ncc(-c2cccc(C(=O)NCc3ccccc3)c2)nc1C(=O)N1CCNCC1 [Example 593, 3-[5-amino-6-(piperazin-1-ylcarbonyl)pyrazin-2-yl]-N-(phenylmethyl)benzamide]
5.00 to 6.00 | CC(=O)NCCNC(=O)c1nc(-c2cccc(C(=O)NCc3ccccc3)c2)cnc1N [Example 661, N-[2-(acetylamino)ethyl]-3-amino-6-(3-{[(phenylmethyl)amino]carbonyl}phenyl)pyrazine-2-carboxamide]

Same assay, conditions: read-out: Chk1 IC50

SMILES | pIC50
CNC(=O)c1nc(-c2cccc(NC(=O)c3cccc(Oc4ccccc4)c3)c2)cnc1N [Example 156, 3-amino-N-methyl-6-[3-({[3-(phenyloxy)phenyl]carbonyl}amino)phenyl]pyrazine-2-carboxamide] | 6.00 to 7.30
CNC(=O)c1nc(-c2cccc(C(=O)NCc3ccc(OCCN4CCOCC4)cc3)c2)cnc1N [Example 324, 3-amino-N-methyl-6-(3-{[({4-[(2-morpholin-4-ylethyl)oxy]phenyl}methyl)amino]carbonyl}phenyl)pyrazine-2-carboxamide] | 6.00 to 7.30
CNC(=O)c1nc(-c2cccc(C(=O)NCc3cccc(Oc4ccccc4)c3)c2)cnc1N [Example 189, 3-amino-N-methyl-6-{3-[({[3-(phenyloxy)phenyl]methyl}amino)carbonyl]phenyl}pyrazine-2-carboxamide] | 6.00 to 7.30
CNC(=O)c1nc(-c2cccc(C(=O)NCc3ccccn3)c2)cnc1N [Example 121, 3-amino-N-methyl-6-(3-{[(pyridin-2-ylmethyl)amino]carbonyl}phenyl)pyrazine-2-carboxamide] | 6.00 to 7.30
CNC(=O)c1nc(-c2cccc(C(=O)NCC3CCCN3Cc3ccccc3)c2)cnc1N (centres unmarked) [Example 385, 3-amino-N-methyl-6-{3-[({[1-(phenylmethyl)pyrrolidin-2-yl]methyl}amino)carbonyl]phenyl}pyrazine-2-carboxamide] | 6.00 to 7.30

Results, then the molecule that gave them:

pIC50 | SMILES
6.00 to 7.30 | CNC(=O)c1nc(-c2cccc(CNCc3cccc(F)c3F)c2)cnc1N [Example 389, 3-amino-6-[3-({[(2,3-difluorophenyl)methyl]amino}methyl)phenyl]-N-methylpyrazine-2-carboxamide]
6.00 to 7.30 | CNC(=O)c1nc(-c2cccc(CNC(=O)c3ccc(Cl)c(Cl)c3)c2)cnc1N [Example 320, 3-amino-6-[3-({[(3,4-dichlorophenyl)carbonyl]amino}methyl)phenyl]-N-methylpyrazine-2-carboxamide]
6.00 to 7.30 | CCOc1ccccc1CNC(=O)c1cccc(-c2cnc(N)c(C(=O)NC)n2)c1 [Example 246, 3-amino-6-{3-[({[2-(ethyloxy)phenyl]methyl}amino)carbonyl]phenyl}-N-methylpyrazine-2-carboxamide]
6.00 to 7.30 | CNC(=O)c1nc(-c2cccc(C(=O)NCc3cc(Cl)ccc3Cl)c2)cnc1N [Example 248, 3-amino-6-[3-({[(2,5-dichlorophenyl)methyl]amino}carbonyl)phenyl]-N-methylpyrazine-2-carboxamide]
6.00 to 7.30 | CNC(=O)c1nc(-c2cccc(C(=O)NCc3ccc4c(c3)CCO4)c2)cnc1N [Example 207, 3-amino-6-(3-{[(2,3-dihydro-1-benzofuran-5-ylmethyl)amino]carbonyl}phenyl)-N-methylpyrazine-2-carboxamide]
6.00 to 7.30 | CNC(=O)c1nc(-c2cccc(C(=O)NCc3cccc(Cl)c3F)c2)cnc1N [Example 300, 3-amino-6-[3-({[(3-chloro-2-fluorophenyl)methyl]amino}carbonyl)phenyl]-N-methylpyrazine-2-carboxamide]
6.00 to 7.30 | CNC(=O)c1nc(-c2cccc(C(=O)NCc3c(N)cccc3F)c2)cnc1N [Example 381, 3-amino-6-[3-({[(2-amino-6-fluorophenyl)methyl]amino}carbonyl)phenyl]-N-methylpyrazine-2-carboxamide]
